This is an account of results in article PMC8507159, “Degradation of epigallocatechin and epicatechin gallates by a novel tannase TanHcw from Herbaspirillum camelliae” (Microbial Cell Factories, 2021).

For the test, the system named is T1, TanHcw.
T1 construct: C-terminal His-tag, pET23a, E. coli BL21(DE3) pLysS; 39 kDa on gel
Description: gallic acid release, rhodanine chromogen at […] nm; Lineweaver-Burk. In kind it is biochemical, Herbaspirillum camelliae. The settings on record: 0.1-2.0 mM substrate.

A word on the Km: it is the concentration of substrate that gives half-maximal velocity. `O=C(O[C@@H]1Cc2c(O)cc(O)cc2O[C@@H]1c1ccc(O)c(O)c1)c1cc(O)c(O)c(O)c1` [ECG, (–)–epicatechin-3-gallate]: the Km (pH 7.0, 40 °C) was found to be 330 ± 10 µM.

For `O=C(O[C@@H]1Cc2c(O)cc(O)cc2O[C@@H]1c1cc(O)c(O)c(O)c1)c1cc(O)c(O)c(O)c1` [EGCG, (–)–epigallocatechin-3-gallate], the Km (pH 7.0, 40 °C) was 300 ± 10 µM. On to `COC(=O)c1cc(O)c(O)c(O)c1` [MG, Methyl gallate], for which the Km (pH 6.0, 30 °C) was determined as 820 ± 20 µM.
